Assay results published in PMC3500388 (Organic & biomolecular chemistry, 2012).
Several values for one entry are separate records, joined by “and”; a condition that tells them apart may be missing. Equal values may be shown once.

Legend:
full-length human ERβ = full-length human ERβ (Homo sapiens, UniProt Q92731); test: Luciferase reporter gene assay in HepG2 cells, ERβ, antagonist mode; assay type: cell-based
full-length human ERα [1] = biological target: T1, full-length human ERα (Homo sapiens, UniProt P03372); test: Luciferase reporter gene assay in HepG2 cells, ERα, agonist mode; details: for Agonist mode ERα Eff (%E2) / ERα agonist activity / intrinsic activity, in words: HepG2 cells; for Agonist mode ERα Eff (%E2): mean ± s.e.m. as percentage of 10^−7 M E2
T1 sequence (P03372 1-595): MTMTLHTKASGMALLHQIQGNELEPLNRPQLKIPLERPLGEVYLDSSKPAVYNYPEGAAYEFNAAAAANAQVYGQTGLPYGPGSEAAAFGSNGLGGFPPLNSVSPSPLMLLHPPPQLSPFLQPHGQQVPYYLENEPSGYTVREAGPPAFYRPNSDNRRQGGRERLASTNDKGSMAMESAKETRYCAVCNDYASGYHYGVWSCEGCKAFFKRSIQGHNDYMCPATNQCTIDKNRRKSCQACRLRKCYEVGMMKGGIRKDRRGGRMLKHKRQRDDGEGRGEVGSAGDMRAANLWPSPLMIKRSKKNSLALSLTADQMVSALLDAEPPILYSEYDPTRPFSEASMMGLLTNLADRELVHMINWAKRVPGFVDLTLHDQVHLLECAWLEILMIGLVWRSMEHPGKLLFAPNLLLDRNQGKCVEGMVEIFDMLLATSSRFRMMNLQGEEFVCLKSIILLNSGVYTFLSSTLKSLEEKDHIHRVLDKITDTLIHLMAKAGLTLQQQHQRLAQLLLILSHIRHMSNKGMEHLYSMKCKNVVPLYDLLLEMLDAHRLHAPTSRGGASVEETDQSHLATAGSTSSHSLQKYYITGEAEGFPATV

full-length human ERα [2] = biological target: T1, full-length human ERα; test: Luciferase reporter gene assay in HepG2 cells, ERα, antagonist mode; assay type: cell-based
[3] = biological target: T2, purified full-length human ERα (Homo sapiens, UniProt P03372); test: Competitive radiometric binding assay, ERα; details: estradiol = 100%; 2 nM [3H]estradiol tracer, 18–24 h at 0 °C
T2 sequence (P03372 1-595): T1 sequence (P03372 1-595)

[4] = biological target: purified full-length human ERβ (Homo sapiens, UniProt Q92731); test: Competitive radiometric binding assay, ERβ; details: estradiol = 100%; 2 nM [3H]estradiol tracer, 18–24 h at 0 °C
HEC-1 cells = details: cited from earlier work

Chain of full-length human ERβ (Q92731 whole entry): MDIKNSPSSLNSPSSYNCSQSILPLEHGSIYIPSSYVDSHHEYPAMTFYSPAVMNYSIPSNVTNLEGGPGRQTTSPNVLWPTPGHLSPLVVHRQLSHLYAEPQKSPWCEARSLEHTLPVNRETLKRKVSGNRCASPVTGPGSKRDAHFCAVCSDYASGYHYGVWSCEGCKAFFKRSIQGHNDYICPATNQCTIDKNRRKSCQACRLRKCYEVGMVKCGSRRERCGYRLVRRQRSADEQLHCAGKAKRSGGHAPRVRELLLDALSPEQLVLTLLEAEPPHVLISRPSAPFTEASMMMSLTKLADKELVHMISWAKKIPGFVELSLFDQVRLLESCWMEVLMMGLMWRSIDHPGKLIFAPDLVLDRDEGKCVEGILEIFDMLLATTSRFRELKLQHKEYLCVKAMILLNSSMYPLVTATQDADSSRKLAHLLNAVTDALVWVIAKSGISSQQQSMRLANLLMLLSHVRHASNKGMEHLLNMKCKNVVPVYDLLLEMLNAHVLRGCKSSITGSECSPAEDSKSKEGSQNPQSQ
Chain of purified full-length human ERβ (Q92731 whole entry): as above

Question: With `CC/C(=C(\c1ccc(O)cc1)c1ccc(OCCN(C)C)cc1)c1ccccc1` [4-OH TAM, 4-OH tamoxifen, reference compound] as the molecule, how does the “Antagonist mode ERβ Eff (%E2)” value (full-length human ERβ) read?
Answer: −20 ± 2 %E2

Question: With `O=S(=O)(Nc1ccccc1)C1CC2OC1C(c1ccc(O)cc1)=C2c1ccc(O)cc1` (stereo not shown) [Compound 11a, 5,6-Bis(4-hydroxyphenyl)-N-phenyl-7-oxabicyclo[2.2.1]hept-5-ene-2-sulfonamide] as the molecule, how does the EC50 (full-length human ERα [1]) read?
Answer: 100 nM

Question: And the “Agonist mode ERα Eff (%E2)” value (full-length human ERα [1])?
Answer: 78 ± 1 %E2

Question: Which results are given for `O=S(=O)(Nc1ccccc1Cl)C1CC2OC1C(c1ccc(O)cc1)=C2c1ccc(O)cc1` (stereo not shown) [Compound 11c, N-(2-Chlorophenyl)-5,6-bis(4-hydroxyphenyl)-7-oxabicyclo-[2.2.1]hept-5-ene-2-sulfonamide]?
Answer: EC50 (full-length human ERα [1]): 200 nM; Agonist mode ERα Eff (%E2) (full-length human ERα [1]): 81 ± 4 %E2

Question: Which “Agonist mode ERα Eff (%E2)” value (full-length human ERα [1]) does the source give for `O=S(=O)(Nc1ccc(Cl)cc1)C1CC2OC1C(c1ccc(O)cc1)=C2c1ccc(O)cc1` (stereo not shown) [Compound 11d, N-(4-Chlorophenyl)-5,6-bis(4-hydroxyphenyl)-7-oxabicyclo-[2.2.1]hept-5-ene-2-sulfonamide] here?
Answer: 42 ± 3 %E2

Question: With `CN(c1ccccc1)S(=O)(=O)C1CC2OC1C(c1ccc(O)cc1)=C2c1ccc(O)cc1` (stereo not shown) [Compound 11e, 5,6-Bis(4-hydroxyphenyl)-N-methyl-N-phenyl-7-oxabicyclo-[2.2.1]hept-5-ene-2-sulfonamide] as the molecule, how does the IC50 (full-length human ERα [2]; read-out: Antagonist mode ERα IC50, in the presence of 10^−8 M E2) read?
Answer: 740 nM

Question: And the “Agonist mode ERα Eff (%E2)” value (full-length human ERα [1])?
Answer: 31 ± 3 %E2

Question: What about the IC50 (full-length human ERβ; read-out: Antagonist mode ERβ IC50, HepG2 cells, in the presence of 10^−8 M E2) of the same molecule?
Answer: 10 nM

Question: With `CN(c1ccccc1Cl)S(=O)(=O)C1CC2OC1C(c1ccc(O)cc1)=C2c1ccc(O)cc1` (stereo not shown) [Compound 11g, N-(2-Chlorophenyl)-5,6-bis(4-hydroxyphenyl)-N-methyl-7-oxabicyclo[2.2.1]hept-5-ene-2-sulfonamide] as the molecule, how does the “relative binding affinity (RBA) for ERα” value [3] read?
Answer: 7.17% and 7.2%

Question: And the EC50 (full-length human ERα [1])?
Answer: 8 nM

Question: And the “Agonist mode ERα Eff (%E2)” value (full-length human ERα [1])?
Answer: 33 ± 1 %E2

Question: And the “relative binding affinity (RBA) for ERβ” value [4]?
Answer: 1.59% and 1.6%

Question: Which “ERα agonist activity / intrinsic activity, in words” value (full-length human ERα [1]) does the source give for `CCN(c1ccccc1)S(=O)(=O)C1CC2OC1C(c1ccc(O)cc1)=C2c1ccc(O)cc1` (stereo not shown) [Compound 11i, N-Ethyl-5,6-bis(4-hydroxyphenyl)-N-phenyl-7-oxabicyclo-[2.2.1]hept-5-ene-2-sulfonamide] here?
Answer: low efficacy compound

Question: And the “Agonist mode ERα Eff (%E2)” value (full-length human ERα [1])?
Answer: 11 ± 1 %E2

Question: With `CCN(c1ccc(OC)cc1)S(=O)(=O)C1CC2OC1C(c1ccc(O)cc1)=C2c1ccc(O)cc1` (stereo not shown) [Compound 11j, N-Ethyl-5,6-bis(4-hydroxyphenyl)-N-(4-methoxyphenyl)-7-oxabicyclo[2.2.1]hept-5-ene-2-sulfonamide] as the molecule, how does the “ERα agonist activity / intrinsic activity, in words” value (full-length human ERα [1]) read?
Answer: as low as that for fulvestrant

Question: And the “Agonist mode ERα Eff (%E2)” value (full-length human ERα [1])?
Answer: 3 ± 1 %E2

Question: What about the “ERβ profile / intrinsic activity, in words” value (full-length human ERβ; HepG2 cells) of the same molecule?
Answer: as low as that for fulvestrant

Question: Which “Agonist mode ERα Eff (%E2)” value (full-length human ERα [1]) does the source give for `CCN(c1ccccc1Cl)S(=O)(=O)C1CC2OC1C(c1ccc(O)cc1)=C2c1ccc(O)cc1` (stereo not shown) [Compound 11k, N-(2-Chlorophenyl)-N-ethyl-5,6-bis(4-hydroxyphenyl)-7-oxabicyclo[2.2.1]hept-5-ene-2-sulfonamide] here?
Answer: 13 ± 1 %E2

Question: Which “Agonist mode ERα Eff (%E2)” value (full-length human ERα [1]) does the source give for `CCN(c1ccc(Cl)cc1)S(=O)(=O)C1CC2OC1C(c1ccc(O)cc1)=C2c1ccc(O)cc1` (stereo not shown) [Compound 11l, N-(4-Chlorophenyl)-N-ethyl-5,6-bis(4-hydroxyphenyl)-7-oxabicyclo[2.2.1]hept-5-ene-2-sulfonamide] here?
Answer: 1 ± 1 %E2

Question: For `O=S(=O)(C1CC2OC1C(c1ccc(O)cc1)=C2c1ccc(O)cc1)N(CC(F)(F)F)c1ccc(Cl)cc1` (stereo not shown) [Compound 11o, N-(4-Chlorophenyl)-5,6-bis(4-hydroxyphenyl)-N-(2,2,2-trifluoroethyl)-7-oxabicyclo[2.2.1]hept-5-ene-2-sulfonamide], which “Agonist mode ERα Eff (%E2)” value (full-length human ERα [1]) is on record?
Answer: 3 ± 3 %E2

Question: With `C[C@]12CC[C@@H]3c4ccc(O)cc4C[C@@H](CCCCCCCCC[S+]([O-])CCCC(F)(F)C(F)(F)F)[C@H]3[C@@H]1CC[C@@H]2O` (stereo partly shown) [Fulvestrant, fulvestrant, reference compound] as the molecule, how does the “ERα antagonist profile, in words” value (full-length human ERα [2]) read?
Answer: full antagonist

Question: And the “Agonist mode ERα Eff (%E2)” value (full-length human ERα [1])?
Answer: 1 ± 1 %E2

Question: What about the “ERβ profile / intrinsic activity, in words” value (full-length human ERβ; HepG2 cells) of the same molecule?
Answer: full antagonist

Question: With `O=S(=O)(Oc1ccccc1)[C@H]1C[C@H]2O[C@@H]1C(c1ccc(O)cc1)=C2c1ccc(O)cc1` [OBHS, exo-5,6-bis-(4-hydroxyphenyl)-7-oxabicyclo[2.2.1]hept-5-ene-2-sulfonic acid phenyl ester] as the molecule, how does the “profile in HEC-1 cells, in words” value (HEC-1 cells) read?
Answer: full antagonist
